{"source": "patent US20200306244A1", "about": "“WNT INHIBITORS FOR USE IN THE TREATMENT OF FIBROSIS” (NOVARTIS AG, priority 2016, published 2020)", "key": {"Tsk-1 mice fibrosis": {"system": "Tsk-1 mice fibrosis", "assay": "Tight skin (Tsk-1) mouse genetic fibrosis model", "format": "in vivo, mouse (Tsk-1)", "settings": "for skin thickness: FIG. 3B; for myofibroblast count: FIG. 3D; for anti-fibrotic effects: Tsk-1 model", "method": "In the Tsk-1 model (FIG. 3(A-F)), treatment with compound of formula (I′) was started at the age of 5 weeks and was continued for 5 weeks. Animals were treated with or without compound of formula (I′) at multiple dose levels twice daily using suspension formulation containing 0.5% methylcellulose and 0.5% tween 80.\n(§1) The anti-fibrotic effects of compound of Formula (I′) on experimental skin fibrosis was evaluated by quantification of dermal or hypodermal thickening, respectively, analyses of myofibroblast counts and assessment of hydroxyproline content. Tissue samples were fixed in 10% phosphate-buffered formalin for 24 hours, then embedded in paraffin and cut into […] sections. The slides were stained with hematoxylin and eosin for better visualization of the tissue structure.\n(§2) The hydroxyproline content was measured according to the method as described in hydroxyproline content (Woessner J. F. Arch. Biochem. Biophys. […], 93, 440-447).\n(§3) The dermal thickness was analyzed with a microscope by measuring the maximal distance between the epidermal-dermal junction and the dermal-subcutaneous fat junction at 4 different skin sections in each mouse.\nThe Hypodermal thickness in TSK-1 mice was determined by measuring the thickness of the subcutaneous connective tissue beneath the panniculus carnosus at 4 different sites of the upper back in each mouse. The evaluation was performed by 2 independent examiners.\n(§4) For quantification of myofibroblasts, skin sections were deparaffinized and incubated with 5% bovine serum albumin for 60 minutes. Cells positive for α-smooth muscle actin (α-SMA) were detected by incubation with monoclonal anti-α-SMA antibodies (clone 1A4; Sigma-Aldrich, Steinheim, Germany) for 2 hours at room temperature followed by incubation with 3% hydrogen peroxide for 10 minutes. […] antibodies labeled with horseradish peroxidase were used as secondary antibodies. The expression of α-SMA was visualized with 3,3′-diaminobenzidine tetrahydrochloride. Monoclonal mouse IgG antibodies were used as controls\nTo further test the anti-fibrotic effects of compound of formula (I′), we turned to a mouse genetic fibrosis model, the tight skin model (Tsk-1). Tsk-1 mice contain a spontaneous duplication mutation of fibrillin-1 gene, which leads to activation of TGFβ signaling, and the subsequent fibrosis (increased in dermal and hypodermal thickness).\nFive week old wild type or Tsk-1 mice were treated with or without compound of formula (I′) b.i.d. for 5 weeks (FIG. 3A)."}, "[1]": {"assay": "Plasma exposure after last oral dose in Tsk-1 model", "format": "in vivo, mouse (Tsk-1)", "settings": "FIG. 3E", "method": "(§5) The plasma concentrations of compound of formula (I′) were determined by a liquid chromatography-tandem mass spectrometry (LC/MS/MS) assay. Briefly, mouse plasma samples were extracted with a methanol-acetonitrile mixture (3:1, v/v). Supernatant was injected onto HPLC system with a Waters Atlantis T3 analytical column (2.1×30 mm, 3.5 μm, Waters Corp., Milford, Mass., USA). The mobile phases consisted of 0.1% formic acid in water (solvent A) and 0.1% formic acid in acetonitrile (solvent B), and a gradient elution method (0-1.5 min, 10% B to 95% B; 1.5-2.0 min, 95% B; 2.01 min, 10% B) at flow rate of 800 μL/min was employed for chromatographic separation. […] Multiple reaction monitoring (MRM) of compound of formula (I′) and internal standard was used for quantitative measurements, and peak integration was performed using Analyst™ 1.4 software. […] Pharmacokinetic parameters were calculated by non-compartmental regression analysis using an in house fitting program.\nSimilar to that described for the bleomycin-induced mouse fibrosis model, plasma exposures of compound of formula (I′) in this tight skin model were also determined following the last oral dose, and PK data are shown in FIG. 3E."}, "[2]": {"system": "bleomycin-induced skin fibrosis", "assay": "Bleomycin mouse fibrosis model in Balb/C mice, skin thickness (FIG. 4)", "format": "in vivo", "method": "To test compound of formula (I′) and compound of formula (I″) in a mouse fibrosis model, bleomycin was injected in Balb/C mice, with or without orally dosed compound of formula (I′) (5 mg/kg b.i.d.) and compound of formula (I″) (1 mg/kg b.i.d.) for 3 weeks. Skin tissue samples were taken at the end of the study and embedded in paraffin and skin thickness was measured (FIG. 4). Furthermore, the bleomycin treated animals were treated with or without orally dosed compound of formula (I′) at a dose of 5 mg/kg b.i.d. and compound of formula (I″) at a dose of 1 mg/kg b.i.d. for three weeks."}, "[3]": {"system": "bleomycin-induced skin fibrosis", "assay": "Bleomycin-induced mouse skin fibrosis model, 3 weeks bleomycin then 3 weeks treatment", "format": "in vivo, mouse (female C57/BI6)", "settings": "for dermal skin thickness: FIG. 1B", "method": "In the bleomycin model (FIG. 1 (A-E) and FIG. 2 (A-B)), fibrosis was induced in 6-week-old female C57/BI6 mice (Charles River, Sulzfeld, Germany) by injection of 100 μL 0.5 mg/ml bleomycin into a defined skin area of 1 cm' between the shoulders at the back every other day for up to six weeks. Control mice were injected with 0.9% NaCl, the solvent of bleomycin. Another group of mice received bleomycin injections for 3 weeks followed by saline (NaCl) injections for the next 3 weeks to control for spontaneous regression of fibrosis. Animals were treated with or without compound of formula (I′) at multiple dose levels twice daily for indicated weeks using suspension formulation containing 0.5% methylcellulose and 0.5% tween 80. Each group of mice were killed and the skin sections analyzed.\nas §1, §2, §3, §4\nPorcupine Inhibitor Compound of Formula (I′) in the Bleomycin-Induced Mouse Fibrosis Model To test compound of formula (I′) for anti-fibrotic effects, bleomycin was injected in 6-week-old female C57/BI6 mice for 3 weeks to induce fibrosis (FIG. 1A). The control group was injected with saline. The bleomycin treated animals were further dosed with or without compound of formula (I′) b.i.d. for another 3 weeks. […] Similar observations have been obtained when examining the hydroxyproline content and myofibroblast count of mouse skin samples as shown in FIG. 1C and FIG. 1D."}, "[4]": {"assay": "PK analysis of blood samples after last dose in bleomycin-treated Balb/C mice", "format": "in vivo, mouse (Balb/C)", "settings": "5 mg/kg b.i.d. oral for 3 weeks; FIG. 2A", "method": "as §5\n(§6) In a separate study to confirm the on-target activity of compound of formula (I′) in a mouse fibrosis model, bleomycin was injected in Balb/C mice, with or without orally dosed compound of formula (I′) at 5 mg/kg b.i.d. for 3 weeks. […] Tissue samples were collected 7 hour after the last dose, and the Wnt pathway target gene Axin2 mRNA expression level was measured with qRT-PCR, with the housekeeping gene, Gapdh, as an internal control."}, "[5]": {"system": "Wnt pathway target gene Axin2 mRNA", "assay": "Axin2 mRNA expression in skin tissue of bleomycin-treated Balb/C mice (qRT-PCR/TaqMan)", "format": "in vivo, mouse (Balb/C)", "settings": "5 mg/kg b.i.d. oral 3 weeks, tissue 7 hour after last dose, Gapdh internal control; FIG. 2B", "method": "Total RNA was isolated from tissue samples and processed to perform quantitative RT-PCR analysis of […] mRNA expression, with Gapdh serving as an internal control according to the manufacturer's instructions, as previously described.\nData were analyzed with SDS 2.0 software (Applied Biosystems), statistical analysis was conducted using PRISM.\nas §6, with “weeks. Blood samples at multiple time points after the last dose were collected.” for “weeks.”"}, "[6]": {"assay": "Plasma exposure after last oral dose in bleomycin model (C57/BI6)", "format": "in vivo, mouse (female C57/BI6)", "settings": "FIG. 1E", "method": "The plasma concentrations of compound of formula (I′) were determined by a liquid chromatography-tandem mass spectrometry (LC/MS/MS) assay. Briefly, mouse plasma samples were extracted with a methanol-acetonitrile mixture (3:1, v/v). Supernatant was injected onto HPLC system with a Waters Atlantis T3 analytical column (2.1×30 mm, 3.5 μm, Waters Corp., Milford, Mass., USA). The mobile phases consisted of 0.1% formic acid in water (solvent A) and 0.1% formic acid in acetonitrile (solvent B), and a gradient elution method (0-1.5 min, 10% B to 95% B; 1.5-2.0 min, 95% B; 2.01 min, 10% B) at flow rate of 800 μL/min was employed for chromatographic separation. Mass spectrometric analysis was performed on a SCIEX API-4000 triple quadruple mass spectrometer (Applied Biosystems, Foster City, Calif., USA) using atmospheric pressure chemical ionization (APCI) in the positive ion mode. Multiple reaction monitoring (MRM) of compound of formula (I′) and internal standard was used for quantitative measurements, and peak integration was performed using Analyst™ 1.4 software. The lower limit of detection for the assay was 1 ng/mL. Pharmacokinetic parameters were calculated by non-compartmental regression analysis using an in house fitting program."}, "skin fibrosis markers": {"system": "skin fibrosis markers", "settings": "clinical trial; Rice et al. 2015; cited from earlier work"}, "[7]": {"system": "primary kidney fibroblasts", "settings": "Madan et al. 2016; cited from earlier work"}, "[8]": {"settings": "all dose levels (2.5, 5, 10 mg/kg) b.i.d. for 5 weeks"}}, "data": [{"compound": "CC(=O)N1CCN(c2ccc(NC(=O)Cc3cnc(-c4ccnc(F)c4)c(C)c3)nc2)CC1", "note": "[compound of formula (I′), N-(5-(4-acetylpiperazin-1-yl)pyridin-2-yl)-2-(2′-fluoro-3-methyl-[2,4′-bipyridin]-5-yl)acetamide]", "values": [{"measurement": "skin thickness", "setting": "Tsk-1 mice fibrosis; 5 and 10 mg/kg groups", "value": "reduced to levels lower than the baseline and closer to the control group"}, {"measurement": "myofibroblast count", "setting": "Tsk-1 mice fibrosis; 5 and 10 mg/kg groups", "value": "reduction of the myofibroblast count towards control level"}, {"measurement": "hypodermal skin thickness", "setting": "Tsk-1 mice fibrosis; H&E staining of mouse skin samples, FIG. 3F", "value": "significantly reduced hypodermal skin thickness"}, {"measurement": "anti-fibrotic effects", "setting": "Tsk-1 mice fibrosis", "value": "robust anti-fibrotic effects"}, {"measurement": "skin thickness", "setting": "Tsk-1 mice fibrosis; [8]", "value": "significant anti-fibrotic effects at all dose levels"}, {"measurement": "hydroxyproline content", "setting": "Tsk-1 mice fibrosis; all dose levels (2.5, 5, 10 mg/kg) b.i.d. for 5 weeks, FIG. 3C", "value": "significant anti-fibrotic effects at all dose levels"}, {"measurement": "myofibroblast count", "setting": "Tsk-1 mice fibrosis; [8]", "value": "significant anti-fibrotic effects at all dose levels"}, {"measurement": "plasma exposures compared with bleomycin model", "setting": "[1]; after last oral dose", "value": "comparable between the two separate experiments"}, {"measurement": "plasma exposures, dose proportionality", "setting": "[1]; from […] to 10 mg/kg", "value": "increased approximately dose proportionally"}, {"measurement": "dermal skin thickness", "setting": "[2]; 5 mg/kg b.i.d. oral for three weeks", "value": "induce the reduction of dermal skin thickness"}, {"measurement": "dermal skin thickness", "setting": "[3]; 5 mg/kg and 10 mg/kg groups, oral b.i.d. 3 weeks", "value": "reduced the skin thickness to levels lower than the baseline"}, {"measurement": "fibrosis reversal (hydroxyproline content and myofibroblast count)", "setting": "[3]; 5 and 10 mg/kg groups", "value": "strong evidence of fibrosis reversal"}, {"measurement": "dermal skin thickness", "setting": "[3]; all dose levels (2.5, 5, 10 mg/kg) oral b.i.d. for 3 weeks after 3 weeks bleomycin", "value": "reduced dermal skin thickness at all dose levels in a dose dependent manner"}, {"measurement": "hydroxyproline content", "setting": "[3]; all dose levels (2.5, 5, 10 mg/kg) oral b.i.d., FIG. 1C", "value": "to levels lower than the baseline and closer to the control group"}, {"measurement": "myofibroblast count", "setting": "[3]; all dose levels (2.5, 5, 10 mg/kg) oral b.i.d., FIG. 1D", "value": "to levels lower than the baseline and closer to the control group"}, {"measurement": "oral bioavailability", "setting": "[4]", "value": "good oral bioavailability"}, {"measurement": "reduction of Axin2 mRNA expression", "setting": "[5]", "value": 54, "unit": "%"}, {"measurement": "absorption and oral exposure", "setting": "[6]; after last oral dose, 2.5-10 mg/kg b.i.d.", "value": "highly absorbed and showed high oral exposures"}, {"measurement": "plasma exposures, dose proportionality", "setting": "[6]; from […] to 10 mg/kg", "value": "increased approximately dose proportionally"}]}, {"compound": "Fresolimumab: anti-TGFβ antibody", "values": [{"measurement": "skin fibrosis markers", "setting": "skin fibrosis markers", "value": "Reduction of the skin fibrosis markers has been observed"}]}, {"compound": "Cc1cc(-c2ncc(CC(=O)Nc3ccc(-c4cnccn4)cn3)cc2C)ccn1", "note": "[compound of formula (I″), 2-(2′,3-dimethyl-[2,4′-bipyridin]-5-yl)-N-(5-(pyrazin-2-yl)pyridin-2-yl)acetamide]", "values": [{"measurement": "anti-fibrotic effects", "setting": "Tsk-1 mice fibrosis", "value": "robust anti-fibrotic effects"}, {"measurement": "dermal skin thickness", "setting": "[2]; 1 mg/kg b.i.d. oral for three weeks", "value": "induce the reduction of dermal skin thickness"}, {"measurement": "in vivo activity compared to compound of Formula (I′)", "setting": "[2]; 1 mg/kg b.i.d. vs 5 mg/kg b.i.d.", "value": "showed even better in vivo activities"}]}, {"compound": "Cc1cc(-c2ccc(CC(=O)Nc3ccc(-c4cccnc4)cc3)cc2)ccn1", "note": "[C59]", "values": [{"measurement": "TGFβ-induced Axing induction", "setting": "[7]", "value": "could abrogate TGFβ-induced Axing induction"}]}]}
